Earlier results in patent publication US9328120B2, “6-cycloalkyl-pyrazolopyrimidinones for the treatment of CNS disorders” (Boehringer Ingelheim International GmbH, priority 2010, dated 2016).

How the values were obtained:
human PDE9A = human PDE9A (Homo sapiens (Human), UniProt O76083); details: for inhibition on the isolated enzyme: concentrations of up to 100 micromolar (μM)
Murine PDE9A = Murine PDE9A (Mus musculus (Mouse), UniProt O70628); details: concentrations below 200 micromolar
Chain of Murine PDE9A (O70628 whole entry): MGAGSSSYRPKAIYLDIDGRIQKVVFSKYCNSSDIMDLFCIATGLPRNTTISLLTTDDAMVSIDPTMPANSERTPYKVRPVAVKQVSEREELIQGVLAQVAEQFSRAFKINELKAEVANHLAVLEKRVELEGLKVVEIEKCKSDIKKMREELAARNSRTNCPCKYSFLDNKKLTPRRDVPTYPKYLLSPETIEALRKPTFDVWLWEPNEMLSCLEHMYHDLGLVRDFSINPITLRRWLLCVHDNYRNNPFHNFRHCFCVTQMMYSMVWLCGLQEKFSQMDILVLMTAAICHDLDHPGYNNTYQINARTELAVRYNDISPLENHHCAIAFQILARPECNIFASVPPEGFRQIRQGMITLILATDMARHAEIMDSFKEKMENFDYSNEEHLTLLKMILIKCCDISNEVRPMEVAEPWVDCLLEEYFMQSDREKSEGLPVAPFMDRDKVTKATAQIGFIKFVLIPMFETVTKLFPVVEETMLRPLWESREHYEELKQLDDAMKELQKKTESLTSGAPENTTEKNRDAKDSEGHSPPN

Chain of human PDE9A (O76083 whole entry): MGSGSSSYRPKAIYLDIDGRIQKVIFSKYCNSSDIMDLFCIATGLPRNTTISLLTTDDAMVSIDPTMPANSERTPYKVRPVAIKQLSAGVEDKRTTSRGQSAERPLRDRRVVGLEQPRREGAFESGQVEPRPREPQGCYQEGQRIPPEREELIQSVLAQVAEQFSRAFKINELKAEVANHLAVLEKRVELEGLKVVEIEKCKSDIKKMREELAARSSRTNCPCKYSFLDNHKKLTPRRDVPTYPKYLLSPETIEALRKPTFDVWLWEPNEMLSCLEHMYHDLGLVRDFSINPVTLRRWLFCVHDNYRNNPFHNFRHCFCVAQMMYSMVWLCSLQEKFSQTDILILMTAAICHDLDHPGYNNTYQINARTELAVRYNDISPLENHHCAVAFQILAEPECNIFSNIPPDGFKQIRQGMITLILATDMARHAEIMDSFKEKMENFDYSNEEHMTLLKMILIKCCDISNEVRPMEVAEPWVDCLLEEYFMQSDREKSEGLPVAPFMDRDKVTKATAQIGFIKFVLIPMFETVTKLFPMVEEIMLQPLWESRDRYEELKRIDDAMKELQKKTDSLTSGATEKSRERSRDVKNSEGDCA

| SMILES | IC50 (human PDE9A; isolated human PDE9A enzyme) | inhibition on the isolated enzyme (human PDE9A) | inhibition of murine PDE9A (Murine PDE9A) |
| --- | --- | --- | --- |
| CCCOc1ccccc1-c1nc2nn[nH]c2c(=O)[nH]1 [zaprinast] | 35 micromolar (μM) | – | – |
| CC(C)Cn1c(=O)n(C)c(=O)c2[nH]cnc21 [IBMX] | – | no inhibition | not inhibited |
| CCOC(=O)C1=C[C@]2(CC)CCCN3CCc4c(n1c1ccccc41)[C@@H]32 [vinpocetine] | – | no inhibition | – |
| COc1ccc(C2CNC(=O)C2)cc1OC1CCCC1 (stereo not shown) [rolipram] | – | no inhibition | – |
| CC(=O)Nc1ccc(-c2c[nH]c(=O)cn2)cc1 [SKF94120] | – | no inhibition | – |
| OCCN(CCO)c1nc(N2CCCCC2)c2nc(N(CCO)CCO)nc(N3CCCCC3)c2n1 [dipyridamole] | – | no inhibition | – |
